Results taken from ChEMBL document CHEMBL1649523, “Prospective open-label study of the administration of two-percent voriconazole eye drops” (2009).
Converted amounts (≈) assume the structure as drawn.

Experiments:
Format in all cases: functional
Candida albicans = assay: Antifungal against Candida albicans
Candida parapsilosis = assay: Antifungal against Candida parapsilosis; details: Lodderomyces parapsilosis
Candida tropicalis = assay: Antifungal against Candida tropicalis
Cryptococcus neoformans = assay: Antifungal against Cryptococcus neoformans
Aspergillus fumigatus = assay: Antifungal against Aspergillus fumigatus
Aspergillus flavus = assay: Antifungal against Aspergillus flavus
Fusarium sp. = assay: Antifungal against Fusarium sp.
Fusarium solani = assay: Antifungal against Fusarium solani by microdilution technique
[1] = Antifungal against Paecilomyces lilacinus; details: Purpureocillium lilacinum
[2] = Antifungal against Acremonium alabamense; details: Thielavia terrestris
Blastomyces dermatitidis = assay: Antifungal against Blastomycoides dermatitidis
[3] = Antifungal against Coccidioides immitis
Histoplasma capsulatum = assay: Antifungal against Histoplasma capsulatum
Talaromyces marneffei = assay: Antifungal against Penicillium marneffei
Curvularia = assay: Antifungal against Curvularia
[4] = Antifungal against Scedosporium
Scedosporium apiospermum = assay: Antifungal against Scedosporium apiospermum

Q: With C[C@@H](c1ncncc1F)[C@](O)(Cn1cncn1)c1ccc(F)cc1F [VORICONAZOLE] as the compound, how does the MIC90 (Candida albicans) read?
A: The MIC90 was 0.06 µg/mL (≈ 0.172 µM).

Q: What about the MIC90 (Candida parapsilosis) of the same compound?
A: Its MIC90 is 0.12 µg/mL (≈ 0.344 µM).

Q: And the MIC90 (Candida tropicalis)?
A: The MIC90 was over 0.25 µg/mL.

Q: And the MIC90 (Cryptococcus neoformans)?
A: Its MIC90 is 0.06 µg/mL (≈ 0.172 µM).

Q: And the MIC90 (Aspergillus fumigatus)?
A: The MIC90 was 0.5 µg/mL (≈ 1.43 µM).

Q: What about the MIC90 (Aspergillus flavus) of the same compound?
A: Its MIC90 is 0.5 µg/mL (≈ 1.43 µM).

Q: What about the MIC90 (Fusarium sp.) of the same compound?
A: The MIC90 was 0.25 µg/mL (≈ 0.716 µM).

Q: What about the MIC90 (Fusarium solani) of the same compound?
A: The MIC90 was 2 µg/mL (≈ 5.73 µM).

Q: And the MIC90 [1]?
A: Its MIC90 is 0.5 µg/mL (≈ 1.43 µM).

Q: And the MIC90 [2]?
A: The MIC90 was 0.25 µg/mL (≈ 0.716 µM).

Q: What about the MIC90 (Blastomyces dermatitidis) of the same compound?
A: The MIC90 was 0.25 µg/mL (≈ 0.716 µM).

Q: And the MIC90 [3]?
A: Its MIC90 is 0.25 µg/mL (≈ 0.716 µM).

Q: And the MIC90 (Histoplasma capsulatum)?
A: The MIC90 was 0.25 µg/mL (≈ 0.716 µM).

Q: What about the MIC90 (Talaromyces marneffei) of the same compound?
A: The MIC90 was 0.03 µg/mL (≈ 0.0859 µM).

Q: What about the MIC90 (Curvularia) of the same compound?
A: Its MIC90 is 0.06 µg/mL (≈ 0.172 µM).

Q: And the MIC90 [4]?
A: Its MIC90 is 0.5 µg/mL (≈ 1.43 µM).

Q: And the MIC90 (Scedosporium apiospermum)?
A: Its MIC90 is 0.5 µg/mL (≈ 1.43 µM).
